Measured values reported in patent US9284284B2, “Oxazine derivatives and their use in the treatment of disease” (NOVARTIS AG, priority 2011, dated 2016).
Where a name gives a salt, the structure may show the parent alone.

Experiments:
human BACE-1 = human BACE-1 (Homo sapiens (Human), UniProt P56817); assay: Test 1: Inhibition of Human BACE-1; assay type: biochemical; settings: recombinant BACE-1, pH 4.5, fluorescence-quenched substrate
Procedure: Test 1: Inhibition of Human BACE-1
(§1) Recombinant BACE-1 (extracellular domain, expressed in baculovirus and purified using standard methods) at 0.1 to 1 nM concentrations is incubated with the test compound at various concentrations for 1 hour at room temperature in 100 mM acetate buffer, pH 4.5, containing 0.1% CHAPS. Activity was measured using a final concentration of 3 μM of the fluorescence-quenched substrate Q-C(HSO3)-Ile-Asp-Leu-Ala-Val-Leu-Asp-HN—CH2—CH2-Mca, where Q=2-nitro-5-amino benzoic acid and Mca=7-methoxy-4-coumarinyl acetic acid. […] Fluorescence increase was followed for 15 min, in 1 minute's intervals. The fluorescence/time slopes were calculated from duplicate wells and from wells without inhibitor and the IC50 values were calculated using a logistic 4-parameter model.

human BACE-2 = human BACE-2 (Homo sapiens (Human), UniProt Q9Y5Z0); assay: Test 2: Inhibition of Human BACE-2; assay type: biochemical; settings: recombinant BACE-2, pH 4.5, fluorescence-quenched substrate
Procedure: Test 2: Inhibition of Human BACE-2
as §1, with “BACE-2” for “BACE-1”

[1] = system: amyloid peptide 1-40 release; assay: Test 4: Inhibition of Cellular Release of Amyloid Peptide 1-40; assay type: cell-based; settings: Cricetulus griseus; Chinese hamster ovary cells transfected with the human gene for amyloid precursor protein, 24 hours; read-out: Amyloid-β1-40 release IC50
Procedure: Chinese hamster ovary cells are transfected with the human gene for amyloid precursor protein. The cells are plated at a density of 8000 cells/well into 96-well microtiter plates and cultivated for 24 hours in DMEM cell culture medium containing 10% FCS. The test compound is added to the cells at various concentrations, and the cells are cultivated for 24 hours in the presence of the test compound. […] The potency of the compound is calculated from the percentage of inhibition of amyloid peptide release as a function of the test compound concentration.

Sequence of human BACE-1 (P56817 46-457): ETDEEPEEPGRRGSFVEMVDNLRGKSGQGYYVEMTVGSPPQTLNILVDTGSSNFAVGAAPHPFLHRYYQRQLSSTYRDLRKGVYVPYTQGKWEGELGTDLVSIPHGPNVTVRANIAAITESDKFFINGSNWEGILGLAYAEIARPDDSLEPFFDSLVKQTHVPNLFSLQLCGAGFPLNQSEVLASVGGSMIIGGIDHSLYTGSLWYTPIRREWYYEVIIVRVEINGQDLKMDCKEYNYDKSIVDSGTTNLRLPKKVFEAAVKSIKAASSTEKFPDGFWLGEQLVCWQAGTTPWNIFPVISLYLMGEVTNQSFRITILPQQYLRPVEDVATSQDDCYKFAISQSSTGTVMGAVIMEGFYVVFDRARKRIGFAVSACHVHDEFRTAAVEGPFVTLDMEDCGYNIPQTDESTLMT
Sequence of human BACE-2 (Q9Y5Z0 63-473): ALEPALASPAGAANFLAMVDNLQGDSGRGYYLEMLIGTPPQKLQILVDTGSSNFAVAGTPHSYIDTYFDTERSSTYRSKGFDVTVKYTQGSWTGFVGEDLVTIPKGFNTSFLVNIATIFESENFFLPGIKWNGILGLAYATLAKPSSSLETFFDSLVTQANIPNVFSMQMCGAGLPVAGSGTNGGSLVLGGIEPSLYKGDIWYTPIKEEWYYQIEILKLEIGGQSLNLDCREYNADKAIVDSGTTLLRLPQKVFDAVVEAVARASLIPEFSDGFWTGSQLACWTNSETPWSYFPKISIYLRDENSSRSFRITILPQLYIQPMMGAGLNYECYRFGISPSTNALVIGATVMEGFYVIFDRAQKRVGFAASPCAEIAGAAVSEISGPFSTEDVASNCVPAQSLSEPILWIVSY

Row | Structure (SMILES) | IC50 (human BACE-1) [nM] | IC50 (human BACE-2) [nM] | IC50 [1] [nM]
1 | COc1cnc(N)nc1Nc1ccc(F)c([C@]2(C(F)F)COCC(N)=N2)c1 [N*4*-[3-((R)-5-amino-3-difluoromethyl-3,6-dihydro-2H-[1,4]oxazin-3-yl)-4-fluoro-phenyl]-5-methoxy-pyrimidine-2,4-diamine] | > 10000 | > 10000 | > 10000
2 | COc1cccnc1Nc1ccc(F)c([C@]2(C)CO[C@@](C)(C(F)(F)F)C(N)=N2)n1 [Example 31, (2R,5R)-5-[3-Fluoro-6-(3-methoxy-pyridin-2-ylamino)-pyridin-2-yl]-2,5-dimethyl-2-trifluoromethyl-5,6-dihydro-2H-[1,4]oxazin-3-ylamine] | 6400 | 1700 | 1000
3 | NC1=NC(c2cc(NCc3cc(Br)co3)ccc2F)(C(F)F)COC1 (centres unmarked) [Example 6, 5-{5-[(4-Bromo-furan-2-ylmethyl)-amino]-2-fluoro-phenyl}-5-difluoromethyl-5,6-dihydro-2H-[1,4]oxazin-3-ylamine] | 6200 | 8300 | 740
4 | COc1cc([N+](=O)[O-])cnc1Nc1ccc(F)c([C@]2(C(F)F)COCC(N)=N2)c1 [Example 26, (R)-5-Difluoromethyl-5-[2-fluoro-5-(3-methoxy-5-nitro-pyridin-2-ylamino)-phenyl]-5,6-dihydro-2H-[1,4]oxazin-3-ylamine] | 2900 | 1400 | 690
5 | NC1=N[C@@](c2cc(Nc3ncccn3)ccc2F)(C(F)F)COC1 [Example 16, (R)-5-Difluoromethyl-5-[2-fluoro-5-(pyrimidin-2-ylamino)-phenyl]-5,6-dihydro-2H-[1,4]oxazin-3-ylamine] | 8600 | > 10000 | 2300
6 | N#Cc1cnc2c(Nc3ccc(F)c([C@]4(C(F)F)COCC(N)=N4)c3)nccc2c1 [Example 9, 8-[3-((R)-5-Amino-3-difluoromethyl-3,6-dihydro-2H-[1,4]oxazin-3-yl)-4-fluoro-phenylamino]-[1,7]naphthyridine-3-carbonitrile] | 18 | 30 | 5
7 | COc1ccnc(Nc2ccc(F)c([C@]3(C(F)F)COCC(N)=N3)c2)n1 [Example 17, (R)-5-Difluoromethyl-5-[2-fluoro-5-(4-methoxy-pyrimidin-2-ylamino)-phenyl]-5,6-dihydro-2H-[1,4]oxazin-3-ylamine] | 1800 | 670 | 400
8 | NC1=N[C@@](c2cc(Nc3nccc4cc(OCCCl)cnc34)ccc2F)(C(F)F)COC1 [Example 11] | 1900 | 5600 | 250
9 | CCOc1cccnc1Nc1ccc(F)c([C@]2(C(F)F)COCC(N)=N2)c1 [Example 19, (R)-5-Difluoromethyl-5-[5-(3-ethoxy-pyridin-2-ylamino)-2-fluoro-phenyl]-5,6-dihydro-2H-[1,4]oxazin-3-ylamine] | 1300 | 160 | 310
10 | C[C@@]1(c2cc(Nc3ncnc4cc(Cl)cnc34)ccc2F)CO[C@@](C)(C(F)(F)F)C(N)=N1 [Example 23, [3-((3R,6R)-5-Amino-3,6-dimethyl-6-trifluoromethyl-3,6-dihydro-2H-[1,4]oxazin-3-yl)-4-fluoro-phenyl]-(7-chloro-pyrido[3,2-d]pyrimidin-4-yl)-amine di-hydrochloride] | 40 | 11 | 51
11 | Cc1cn2ccnc(Nc3ccc(F)c([C@]4(C(F)F)COCC(N)=N4)c3)c2n1 [Example 12, [3-((R)-5-Amino-3-difluoromethyl-3,6-dihydro-2H-[1,4]oxazin-3-yl)-4-fluoro-phenyl]-(2-methyl-imidazo[1,2-a]pyrazin-8-yl)-amine] | 350 | 72 | 86
12 | C[C@@]1(c2nc(Nc3ncccc3C#N)ccc2F)CO[C@@](C)(C(F)(F)F)C(N)=N1 [Example 30, 2-[6-((3R,6R)-5-Amino-3,6-dimethyl-6-trifluoromethyl-3,6-dihydro-2H-[1,4]oxazin-3-yl)-5-fluoro-pyridin-2-ylamino]-nicotinonitrile] | 1500 | 1600 | 150
13 | C[C@@]1(c2cc(Nc3ncnc4cc(C(F)(F)F)cnc34)ccc2F)CO[C@@](C)(C(F)(F)F)C(N)=N1 [Example 24, [3-((3R,6R)-5-Amino-3,6-dimethyl-6-trifluoromethyl-3,6-dihydro-2H-[1,4]oxazin-3-yl)-4-fluoro-phenyl]-(7-trifluoromethyl-pyrido[3,2-d]pyrimidin-4-yl)-amine] | 83 | 280 | 46
14 | COc1cncnc1Nc1ccc(F)c([C@]2(C(F)F)COCC(N)=N2)c1 [Example 21, (R)-5-Difluoromethyl-5-[2-fluoro-5-(5-methoxy-pyrimidin-4-ylamino)-phenyl]-5,6-dihydro-2H-[1,4]oxazin-3-ylamine] | 1500 | 560 | 430
15 | C[C@@]1(c2cccc(Nc3n[nH]c4ccccc34)c2)COCC(N)=N1 [[3-((R)-5-amino-3-methyl-3,6-dihydro-2H-[1,4]oxazin-3-yl)-phenyl]-(1H-indazol-3-yl)-amine] | > 10000 | > 10000 | > 10000
16 | CC1(c2cc(NCc3ccco3)ccc2F)COCC(N)=N1 (centres unmarked) [Example 4, 5-{2-Fluoro-5-[(furan-2-ylmethyl)-amino]-phenyl}-5-methyl-5,6-dihydro-2H-[1,4]oxazin-3-ylamine] | 1900 | 2400 | 380
17 | NC1=N[C@@](c2cc(Nc3nccc4cc(Br)cnc34)ccc2F)(C(F)F)COC1 [Example 8, [3-((R)-5-Amino-3-difluoromethyl-3,6-dihydro-2H-[1,4]oxazin-3-yl)-4-fluoro-phenyl]-(3-bromo-[1,7]naphthyridin-8-yl)-amine] | 21 | 11 | 33
18 | CC1(c2cccc(Nc3nsc4cc(Br)ccc34)c2)COCC(N)=N1 (centres unmarked) [Example 1, [3-(5-Amino-3-methyl-3,6-dihydro-2H-[1,4]oxazin-3-yl)-phenyl]-(6-bromo-benzo[d]isothiazol-3-yl)-amine] | 1500 | 1900 | 2900
19 | Cn1nc(Nc2cccc([C@]3(C)COCC(N)=N3)c2)c2ccccc21 [Example 32, [3-((R)-5-Amino-3-methyl-3,6-dihydro-2H-[1,4]oxazin-3-yl)-phenyl]-(1-methyl-1H-indazol-3-yl)-amine] | > 10000 | > 10000 | 8300
20 | Cn1nc(Nc2cccc(C3(C)COCC(N)=N3)c2)c2ccc(Br)cc21 (centres unmarked) [Example 2, [3-(5-Amino-3-methyl-3,6-dihydro-2H-[1,4]oxazin-3-yl)-phenyl]-(6-bromo-1-methyl-1H-indazol-3-yl)-amine] | 5200 | > 10000 | 3500
21 | COCCOc1cnc2c(Nc3ccc(F)c([C@]4(C(F)F)COCC(N)=N4)c3)nccc2c1 [Example 10, [3-((R)-5-Amino-3-difluoromethyl-3,6-dihydro-2H-[1,4]oxazin-3-yl)-4-fluoro-phenyl]-[3-(2-methoxy-ethoxy)-[1,7]naphthyridin-8-yl]-amine] | 600 | 8200 | 24
22 | C[C@@]1(c2nc(Nc3ncnc4cc(C(F)(F)F)cnc34)ccc2F)CO[C@@](C)(C(F)(F)F)C(N)=N1 [Example 28, [6-((3R,6R)-5-Amino-3,6-dimethyl-6-trifluoromethyl-3,6-dihydro-2H-[1,4]oxazin-3-yl)-5-fluoro-pyridin-2-yl]-(7-trifluoromethyl-pyrido[3,2-d]pyrimidin-4-yl)-amine] | 68 | 200 | 150
23 | CC1(c2cccc(Nc3noc4ccccc34)c2)COCC(N)=N1 (centres unmarked) [Example 3, [3-(5-Amino-3-methyl-3,6-dihydro-2H-[1,4]oxazin-3-yl)-phenyl]-benzo[d]isoxazol-3-yl-amine] | 8900 | 3200 | 7100
24 | COc1cccnc1Nc1ccc(F)c([C@]2(C(F)F)COCC(N)=N2)c1 [Example 15, (R)-5-Difluoromethyl-5-[2-fluoro-5-(3-methoxy-pyridin-2-ylamino)-phenyl]-5,6-dihydro-2H-[1,4]oxazin-3-ylamine] | 300 | 89 | 56
25 | COc1c(N)ncnc1Nc1ccc(F)c([C@]2(C(F)F)COCC(N)=N2)c1 [N-[3-((R)-5-amino-3-difluoromethyl-3,6-dihydro-2H-[1,4]oxazin-3-yl)-4-fluoro-phenyl]-5-methoxy-pyrimidine-4,6-diamine] | > 10000 | > 10000 | 
